Data on 13 compounds can be found in US20240261308A1, “TREATMENT OF SKIN CONDITIONS USING HIGH KRAFFT TEMPERATURE ANIONIC SURFACTANTS” (ARCUTIS BIOTHERAPEUTICS, INC., priority 2020, published 2024).

Assay in the first series: not given
The settings on record: commonly used anionic surfactants, table values; cited from earlier work.
For the compound `CCCCCCCCCCCCCCCC(=O)[O-].[Na+]` [Sodium palmitate], the “Krafft Temperature” value was 69 °C.

On to `CCCCCCCCCCCCCCCCS(=O)(=O)[O-].[Na+]` [Sodium hexadecyl sulfonate], for which the “Krafft Temperature” value was 57.0 °C.

For `CCCCCCCCCCCCCCCCOS(=O)(=O)[O-].[Na+]` [Sodium cetyl sulfate], the “Krafft Temperature” value was 45.0 °C.

For the compound `CCCCCCCCCCCCOS(=O)(=O)[O-].[Na+]` [Sodium lauryl sulfate (SLS), Sodium lauryl sulfate], the “Krafft Temperature” value was 16.0 °C.

For the compound `CCCCCCCCCCCCCCS(=O)(=O)[O-].[Na+]` [Sodium myristyl sulfonate], the “Krafft Temperature” value was 48.0 °C.

On to “Sodium laureth sulfate [Sodium laureth sulfate (SLES)]”, for which the “Krafft Temperature” value is less than 0 °C.

In the case of `CCCCCCCCCCCCOS(=O)(=O)O.N` [Ammonium lauryl sulfate (ALS), Ammonium lauryl sulfate], the “Krafft Temperature” value was 10 °C.

As for `CCCCCCCCCCOS(=O)(=O)[O-].[Na+]` [Sodium decyl sulfate], the “Krafft Temperature” value was 8.0 °C.

In the case of `CCCCCCCCCCCCCCCCCC(=O)[O-].[Na+]` [Sodium stearate], the “Krafft Temperature” value is 71 °C.

For `CCCCCCCCCCCCCC(=O)[O-].[Na+]` [Sodium myristate], the “Krafft Temperature” value is 39 °C.

Regarding `CCCCCCCCCCCCCCOS(=O)(=O)[O-].[Na+]` [Sodium myristyl sulfate], the “Krafft Temperature” value is 30.0 °C.

Turning to `CCCCCCCCCCCCCCCCCCOS(=O)(=O)[O-].[Na+]` [Sodium stearyl sulfate], the “Krafft Temperature” value was 56.0 °C.

The next series in a line: Krafft temperature determination of dilute aqueous surfactant in a water bath (dissolution and frothing). Format: physicochemical. Conditions: 0.012% ceteth-10 phosphate, 0.017% dicetyl phosphate, 0.014% sodium cetostearyl sulfate in distilled water. As to the method: 0.0012 grams of ceteth-10 phosphate (Moravek Lot 671-144-000-A-20190821-JHO) was weighed into a 20 mL glass scintillation vial. 10.0113 grams of distilled water was added to the scintillation vial and the vial was tightly capped and placed in a water bath. […] The surfactant remained as waxy particles sedimented on the bottom of the vial. After equilibration at 53.0° C. for 435 minutes, ceteth-10 phosphate had dissolved and the sample frothed when shaken. The Krafft temperature of a 0.012% ceteth-10 phosphate aqueous solution was determined to be 53.0° C.
0.0019 grams of dicetyl phosphate (Sigma dihexadecyl phosphate lot STBH2863) was weighed into a 20 mL glass scintillation vial. 11.2262 grams of distilled water was added to the scintillation vial and the vial was tightly capped and placed in a water bath. […] After equilibration at 58.0° C. for 450 minutes, dicetyl phosphate had dissolved and the sample frothed when shaken. The Krafft temperature of a 0.017% dicetyl phosphate aqueous solution was determined to be 58.0° C.
0.0024 grams of sodium cetostearyl sulfate (BASF Lanette E Granules Lot 0021826181) was weighed into a 20 mL glass scintillation vial. 17.0763 grams of distilled water was added to the scintillation vial and the vial was tightly capped and placed in a water bath. […] The Krafft temperature of a 0.014% sodium cetostearyl sulfate aqueous solution was determined to be 41.0° C.
Regarding “ceteth-10 phosphate [Ceteth - 10 phosphate]”, the Krafft Temperature was 53 °C.

The same series, now with this note: 0.012% ceteth-10 phosphate, 0.017% dicetyl phosphate, 0.014% sodium cetostearyl sulfate in distilled water; listed as ceteth-10 phosphate.
For the compound “ceteth-10 phosphate [Ceteth - 10 phosphate]”, the Krafft Temperature was determined as 53 °C.
